Reference: patent US20140024662A1, “COMPOUNDS, SCREENS, AND METHODS OF TREATMENT” (Shanghai Institute of Organic Chemistry, priority 2006, published 2014)
pEC50: −log10 of the molar value. Where two headings read alike, the source gives them in different places.

Test system: FADD-deficient Jurkat cells
Assay: necroptosis assay: FADD-deficient Jurkat cells treated with TNFα, cell viability
Format: cell-based, human
Details: for pEC50 / EC50: effective concentration for half-maximum response, inhibition of necroptosis in FADD-deficient Jurkat cells treated with TNFα; for pEC50: read-out: EC50; for Max Prot: max viability obtained in the presence of a compound; for Max Prot / activity in the necroptosis assay, in words: FADD-deficient Jurkat cells treated with TNFα; call rule not given here
Source text: Herein we describe the structure activity analysis of Nec-5 analogs.

SMILES | EC50 | also measured
CCc1c(C)sc2nc(SCC#N)n(-c3ccc4c(c3)OCO4)c(=O)c12 [Compound 128] |  | pEC50: 5.72; Max Prot: 100%
N#CCSc1nc2sc3c(c2c(=O)n1-c1ccc2c(c1)OCO2)CCC3 [Compound 129] |  | pEC50: 5.93; Max Prot: 100%
CSc1nc2sc(C)c(C)c2c(=O)n1-c1ccc2c(c1)OCO2 [Compound 130] |  | pEC50: 5.95; Max Prot: 67.0%
CCc1c(C)sc2nc(SC)n(-c3ccc4c(c3)OCO4)c(=O)c12 [Compound 131] | inactive | activity in the necroptosis assay, in words: inactive
CSc1nc2sc3c(c2c(=O)n1-c1ccc2c(c1)OCO2)CCC3 [Compound 132] | inactive | activity in the necroptosis assay, in words: inactive
N#CCSc1nc2sc3c(c2c(=O)n1-c1ccc2c(c1)OCCO2)CCC3 [Compound 133] |  | pEC50: 6.60; Max Prot: 100%
N#CCSc1nc2sc3c(c2c(=O)n1-c1ccc2c(c1)OCCO2)CCCC3 [Compound 134] |  | pEC50: 6.66; Max Prot: 100%
N#CCSc1nc2sc3ccccc3c2c(=O)n1-c1ccc2c(c1)OCCO2 [Compound 135] |  | increase in activity versus para-methoxy (R5 ethylene dioxy compared with para-methoxy): ~2 fold; pEC50: 6.82; Max Prot: 100%
Cc1sc2nc(SCC#N)n(-c3ccc4c(c3)OCCO4)c(=O)c2c1C [Compound 136] |  | pEC50: 6.60; Max Prot: 100%
Cc1ccc(-n2c(SCC#N)nc3sc(C)c(C)c3c2=O)cc1C [Compound 137] |  | activity in the necroptosis assay, in words: showed higher activity than compound (43); pEC50: 5.55; Max Prot: 90.7%
Cc1ccc(-n2c(SCC#N)nc3sc4c(c3c2=O)CCC4)cc1C [Compound 139] | inactive | activity in the necroptosis assay, in words: essentially inactive
CSc1nc2sc(C)c(C)c2c(=O)n1-c1ccc(C)c(C)c1 [Compound 140] | inactive | 
CSc1nc2sc3c(c2c(=O)n1-c1ccc(C)c(C)c1)CCC3 [Compound 142] | inactive | 
N#CCSc1nc2sc3ccccc3c2c(=O)n1-c1ccc(F)cc1 [Compound 144] |  | pEC50: 5.51
CCOc1ccc(-n2c(SCC#N)nc3sc4ccccc4c3c2=O)cc1 [Compound 145] | inactive | 
N#CCSc1nc2sc3ccccc3c2c(=O)n1-c1ccc2c(c1)OCO2 [Compound 146] |  | activity in the necroptosis assay, in words: potent inhibitor; pEC50: 6.57; Max Prot: 100%
N#CCSc1nc2sc3ccccc3c2c(=O)n1-c1ccc(OC(F)(F)F)cc1 [Compound 147] | inactive | 
CN(C)c1ccc(-n2c(SCC#N)nc3sc4ccccc4c3c2=O)cc1 [Compound 148] | inactive | Max Prot: inactive
CSc1nc2sc3ccccc3c2c(=O)n1-c1ccc(F)cc1 [Compound 150] |  | pEC50: 5.51
CCOc1ccc(-n2c(SC)nc3sc4ccccc4c3c2=O)cc1 [Compound 151] | inactive | 
CSc1nc2sc3ccccc3c2c(=O)n1-c1ccc2c(c1)OCO2 [Compound 152] | inactive | 
CSc1nc2sc3ccccc3c2c(=O)n1-c1ccc(OC(F)(F)F)cc1 [Compound 153] | inactive | 
CCOc1ccc(-n2c(SCC#N)nc3sc(C)c(C)c3c2=O)cc1 [Compound 154] |  | pEC50: 5.11; Max Prot: 97%
Cc1sc2nc(SCC#N)n(-c3ccc(OCc4ccccc4)cc3)c(=O)c2c1C [Compound 155] | inactive | 
Cc1sc2nc(SCC#N)n(-c3ccc(OC(F)(F)F)cc3)c(=O)c2c1C [Compound 156] |  | pEC50: 5.43; Max Prot: 63%

SMILES | EC50 | also measured
Cc1sc2nc(SCC#N)n(-c3ccc(N(C)C)cc3)c(=O)c2c1C [Compound 157] | inactive | 
CCOc1ccc(-n2c(SC)nc3sc(C)c(C)c3c2=O)cc1 [Compound 158] | inactive | 
CSc1nc2sc(C)c(C)c2c(=O)n1-c1ccc(OCc2ccccc2)cc1 [Compound 159] | inactive | 
CSc1nc2sc(C)c(C)c2c(=O)n1-c1ccc(OC(F)(F)F)cc1 [Compound 160] | inactive | 
CSc1nc2sc(C)c(C)c2c(=O)n1-c1ccc(N(C)C)cc1 [Compound 161] | inactive | 
N#CCSc1nc2sccc2c(=O)n1-c1ccccc1 [Compound 162] | inactive | 
N#CCSc1nc2sc3c(c2c(=O)n1-c1ccccc1)CCC3 [Compound 163] | inactive | 
CCOc1ccc(-n2c(SCC#N)nc3sc4c(c3c2=O)CCC4)cc1 [Compound 164] | inactive | 
N#CCSc1nc2sc3c(c2c(=O)n1-c1ccccc1)CCCCC3 [Compound 165] | inactive | 
COc1ccc(-n2c(SCC#N)nc3sc4c(c3c2=O)CCC(C)C4)cc1OC (stereo not drawn) [Compound 166] | inactive | 
N#CCSc1nc2sc3c(c2c(=O)n1-c1ccc(OC(F)(F)F)cc1)CCC3 [Compound 167] |  | activity in the necroptosis assay, in words: showed some, albeit greatly reduced, activity; pEC50: 5.43; Max Prot: 70%
N#CCSc1nc2sc3c(c2c(=O)n1-c1ccc(OC(F)(F)F)cc1)CCCCC3 [Compound 168] | inactive | 
COc1ccc(-n2c(SCC#N)nc3sc4c(c3c2=O)CCC4)cc1OC [Compound 169] | inactive | 
C=CCSc1nc2sc3c(c2c(=O)n1-c1ccccc1)CCCC3 [Compound 170] | inactive | 
O=c1c2c3c(sc2nc(SCc2ccccc2)n1-c1ccccc1)CCCC3 [Compound 171] | inactive | 
CSc1nc2sccc2c(=O)n1-c1ccccc1 [Compound 173] | inactive | 
COc1ccc(-n2c(SC)nc3sc4c(c3c2=O)CCC(C)C4)cc1OC (stereo not drawn) [Compound 174] | inactive | 
CCSc1nc2sc3c(c2c(=O)n1-c1ccccc1)CCCCC3 [Compound 175] | inactive | 
C#CCSc1nc2sc(C)c(C)c2c(=O)n1-c1ccc2c(c1)OCO2 [Compound 176] | inactive | 
C#CCSc1nc2sc(C)c(CC)c2c(=O)n1-c1ccc2c(c1)OCO2 [Compound 177] | inactive | 
CCOc1ccc(-n2c(SC)nc3sc4c(c3c2=O)CCC4)cc1 [Compound 178] | inactive | 
CCc1c(C)sc2nc(SCCO)n(-c3ccc4c(c3)OCO4)c(=O)c12 [Compound 180] | inactive | 
CCN1CCc2c(sc3nc(SC)n(-c4ccccc4)c(=O)c23)C1 [Compound 181] | inactive | 
CSc1nc2sc3c(c2c(=O)n1-c1ccc(OC(F)(F)F)cc1)CCC3 [Compound 182] | inactive | 
